The text below walks through data of US4831026A, “2-oxa-isocephem compounds, compositions containing same and processes of using” (Otsuka Pharmaceutical Co., Ltd., priority 1985, dated 1989).

Read-outs that look alike come from different tables or passages of the source.

The test system of assay [1] is M. morganii ATCC-25830. The experiment in a line: Antimicrobial activity test: MIC by the agar plate dilution method, M. morganii ATCC-25830. The assay is classed as cell-based. The following applies: inoculum 1×10^6 cells/ml. The method, then:
(§1) In order to investigate the in vitro activity of the under-mentioned compounds against various bacteria, the minimal inhibitory concentration (MIC) values were determined by the agar plate dilution method [see Chemotherapy, 22, 1126-1128 (1974)].
(§2) Each test inoculum was adjusted to 1×10^6 cells/ml (O.D., 600 mμ: 0.07-0.16).

Assay [2] relates to E. coli No. 29. The assay can be described thus: Antimicrobial activity test: MIC by the agar plate dilution method, E. coli No. 29. The assay is classed as cell-based. Here is the method:
as §1, §2

The test system of assay [3] is S. marcescens IFO-12648. The assay can be described thus: Antimicrobial activity test: MIC by the agar plate dilution method, S. marcescens IFO-12648. The format is cell-based. Here is the method:
as §1, §2

Assay [4] has as its system P. mirabilis 1287. The experiment in a line: Antimicrobial activity test: MIC by the agar plate dilution method, P. mirabilis 1287. The assay is classed as cell-based. The method, then:
as §1, §2

Assay [5] relates to S. aureus FDA-209-p. The experiment in a line: Antimicrobial activity test: MIC by the agar plate dilution method, S. aureus FDA-209-p. The format is cell-based, Staphylococcus aureus. The settings on record: inoculum 1×10^6 cells/ml. Here is the method: as §1, §2
Assay [6] deals with P. aeruginosa NCTC-10490. The assay can be described thus: Antimicrobial activity test: MIC by the agar plate dilution method, P. aeruginosa NCTC-10490. The assay is classed as cell-based. The settings on record: inoculum 1×10^6 cells/ml. The method, then:
as §1, §2

The test system of assay [7] is K. pneumoniae NCTC-9632. The assay can be described thus: Antimicrobial activity test: MIC by the agar plate dilution method, K. pneumoniae NCTC-9632. The format is cell-based. The following applies: inoculum 1×10^6 cells/ml. The method, then: as §1, §2
Setting [8] is: E. coli No. 29, inoculum 1×10^6 cells/ml.
Setting [9] is: S. marcescens IFO-12648, inoculum 1×10^6 cells/ml.
Where [10] appears, read: P. mirabilis 1287, inoculum 1×10^6 cells/ml.

By MIC is commonly meant the least concentration at which growth counts as inhibited. Low values mean greater potency, high ones weaker potency. In the case of “Benzhydryl 7-[2-(2-tritylaminothiazol-4-yl)-2cyanomethyloxyiminoacetamido-]-3-[(1,3,4-thiadiazol-2-yl)thiomethyl]-Δ^3 -O-2-isocephem-4-carboxylate (syn-isomer) [Example 41]”, the MIC in assay [1] was 0.78 µg/mL; in assay [2] (setting [8]) it was 0.2 µg/mL; in assay [3] (setting [9]) it was 1.56 µg/mL; in assay [4] (setting [10]), 0.2 µg/mL; in assay [5], 0.39 µg/mL; in assay [6], 0.78 µg/mL. In assay [7], this substance had an MIC of 0.39 µg/mL.

For the substance “Benzhydryl 7-[2-(2-tritylaminothiazol-4-yl)-2-[(1-tritylpyrazol-3-yl)methoxyiminoacetamido]-3-[(1,3,4-thiadiazol-2-yl)thiomethyl]-Δ^3 -O-2-isocephem-4-carboxylate (syn-isomer) [Example 23]”, the MIC in assay [1] is 0.1 µg/mL; in assay [2] (setting [8]), 0.2 µg/mL; in assay [3] it was 0.39 µg/mL; in assay [4] (setting [10]), not above 0.025 µg/mL; in assay [5] it was 6.25 µg/mL; in assay [6], 12.5 µg/mL. This substance had an MIC in assay [7] of 0.1 µg/mL.

“7-[2-(2-Chloroacetamidothiazol-4-yl)-2-cyclopentyloxyiminoacetamido]-3-[(1,3,4-thiadiazol-2-yl)thiomethyl]-Δ^3 -O-2-isocephem-4-carboxylic acid (syn-isomer) [Example 26]”: the MIC in assay [1] was 0.05 µg/mL; in assay [2] (setting [8]), 0.05 µg/mL; in assay [3] it was 0.39 µg/mL; in assay [4] (setting [10]), not above 0.025 µg/mL; in assay [5], 0.2 µg/mL; in assay [6], 0.39 µg/mL. The substance further displayed a minimal inhibitory concentration (MIC) in assay [7] of 0.2 µg/mL.

Consider “Benzhydryl 7-[2-(2-tritylaminothiazol-4-yl)-2-[(2-butenyl)oxyimino]acetamido]-3-[(1,3,4-thiadiazol-2-yl)thiomethyl]-Δ^3 -O-2-isocephem-4-carboxylate (syn-isomer) [Example 37]”, for which the minimal inhibitory concentration (MIC) in assay [1] stood at 0.78 µg/mL; in assay [2] (setting [8]), 0.2 µg/mL; in assay [3] (setting [9]), 1.56 µg/mL; in assay [4] (setting [10]), 0.2 µg/mL; in assay [5], 0.78 µg/mL; in assay [6], 1.56 µg/mL. Besides, the minimal inhibitory concentration (MIC) in assay [7] was determined as 0.39 µg/mL.

On to “7-2-(Thiazol-4-yl)-2-tert-butoxycarbonylmethoxyiminoacetamido]-Δ^3 -O-2-isocephem-4-carboxylic acid (syn-isomer) [Example 19]”, for which the minimal inhibitory concentration (MIC) is not above 0.025 µg/mL in assay [1]; not above 0.025 µg/mL in assay [2] (setting [8]); 0.05 µg/mL in assay [3] (setting [9]); not above 0.025 µg/mL in assay [4] (setting [10]); 0.39 µg/mL in assay [5]; 3.13 µg/mL in assay [6]. In addition, the MIC in assay [7] is not above 0.025 µg/mL.

For the substance “7-[2-(2-Chloroacetamidothiazol-4-yl)-2-methoxyiminoacetamido]-3-[(carbamoyloxy)methyl]-Δ^3 -O-2-isocephem-4-carboxylic acid (syn-isomer) [Example 8]”, the MIC in assay [1] came to 0.1 µg/mL; in assay [2] (setting [8]), 0.2 µg/mL; in assay [3], 0.39 µg/mL; in assay [4] (setting [10]), 0.05 µg/mL; in assay [5] it was 0.78 µg/mL; in assay [6], 1.56 µg/mL. Moreover, in assay [7], the MIC came out at 0.2 µg/mL.

For “7-[2-(2-Aminothiazol-4-yl)-2-[(3-butenyl)oxyimino]acetamido]-3-[(1,3,4-thiadiazol-2-yl)thiomethyl-]-Δ^3 -O-2-isocephem-4-carboxylic acid trifluoroacetate (syn-isomer) [Example 40]”, the MIC in assay [1] is 3.13 µg/mL; in assay [2], 3.13 µg/mL; in assay [3] (setting [9]) it was 12.5 µg/mL; in assay [4] (setting [10]) it was 6.25 µg/mL; in assay [5], 6.25 µg/mL; in assay [6] it was 25 µg/mL. The substance also came in with an MIC in assay [7] of 3.13 µg/mL.

On to “7-[2-(2-Chloroacetamidothiazol-4-yl)-2-allyloxyiminoacetamido]-3-[(1,3,4-thiadiazol-2-yl)thiomethyl]-Δ^3 -O-2-isocephem-4-carboxylic acid (syn-isomer) [Example 15]”, for which the MIC in assay [1] was not above 0.025 µg/mL; in assay [2] (setting [8]) it was not above 0.025 µg/mL; in assay [3] (setting [9]) it was 0.1 µg/mL; in assay [4] (setting [10]) it was not above 0.025 µg/mL; in assay [5], 0.39 µg/mL; in assay [6], 0.78 µg/mL. The substance further registered an MIC in assay [7] of 0.1 µg/mL.

Regarding “Benzyl 7-[2-(2-chloroacetamidothiazol-4-yl)-2-(tert-butoxycarbonylmethoxyimino)acetamido]-3-[(1,3,4-thiadiazol-2-yl)thiomethyl]-Δ^3 -O-2-isocephem-4carboxylate (syn-isomer) [Example 2]”, the MIC in assay [1] was not above 0.025 µg/mL; in assay [2] (setting [8]), 0.05 µg/mL; in assay [3] (setting [9]), 0.2 µg/mL; in assay [4] (setting [10]) it was not above 0.025 µg/mL; in assay [5], 0.78 µg/mL; in assay [6], 3.13 µg/mL. Further, the MIC in assay [7] came to 0.2 µg/mL.

As for “Benzhydryl 7-[2-(2-formamidothiazol-4-yl)-2-methylthiomethoxyiminoacetamido]-3-[(1,3,4-thiadiazol-2-yl)thiomethyl]-Δ^3 -O-2-isocephem-4-carboxylate (syn-isomer) [Example 44]”, the MIC in assay [1] is 0.78 µg/mL; in assay [2], 0.2 µg/mL; in assay [3] it was 1.56 µg/mL; in assay [4], 0.2 µg/mL; in assay [5], 0.39 µg/mL; in assay [6], 3.13 µg/mL. In assay [7], this substance returned an MIC of 0.39 µg/mL.

Turning to “1-Acetoxyethyl 7-[2-(2-aminothiazol-4-yl)-2-methoxyiminoacetamido]-3-[(1,3,4-thiadiazol-2-yl)thiomethyl]-Δ^3 -O-2-isocephem-4-carboxylate (syn-isomer) [Example 13]”, the MIC in assay [1] came to 0.39 µg/mL; in assay [2] it was 0.39 µg/mL; in assay [3], 0.78 µg/mL; in assay [4] (setting [10]) it was 0.1 µg/mL; in assay [5] it was 0.39 µg/mL; in assay [6] it was 0.78 µg/mL. In assay [7], this substance gave an MIC of 0.78 µg/mL.

Turning to “7-[2-(2-Trichloroacetamidothiazol-4-yl)-2-methoxyiminoacetamido]-3-[(carbamoyloxy)methyl]-Δ^3 -O-2-isocephem-4-carboxylic acid (syn-isomer) [Example 7]”, the MIC in assay [1] was not above 0.025 µg/mL; in assay [2] (setting [8]), 0.1 µg/mL; in assay [3], 0.39 µg/mL; in assay [4] (setting [10]), not above 0.025 µg/mL; in assay [5], 0.78 µg/mL; in assay [6] it was 0.78 µg/mL. Also, in assay [7], the MIC worked out at 0.2 µg/mL.
